The values that follow come from US7547691B2, “[4-(Benzo[B]thiophen-2-yl) Pyrimidin-2-yl]-amine derivatives as IKK-beta inhibitors for the treatment of cancer and inflammatory diseases” (Eli Lilly and Company, priority 2005, dated 2009).

The IC50 is the point on the concentration scale where inhibition reaches its midpoint.

In experiment [1] the test system is HCT116 cells. The experiment in a line: Cell Viability Test, HCT116. The following applies: HCT-116; HCT116 (human colon cancer cell line); 1 ng/mL TNFα, 0.5% DMSO, 48 hours; read-out: Cell Viability Inhibition IC50. It counts as cell-based. Here is the method:
(§1) RPMI 8226 cells (ATCC #CCL-155; human multiple myeloma cell line) are grown in RPMI 1640 medium (Gibco #11875-093) supplemented with 10% FBS (fetal bovine serum, Gibco #10082-147), 10 mM HEPES (Gibco #15630-080), 1 mM sodium pyruvate (Gibco #11360-070), and 4.5 mg/mL glucose. HCT116 cells (ATCC #CCL-247; human colon cancer cell line) are grown in McCoy's 5A modified medium (Gibco #16600-082) supplemented with 10% FBS (Gibco #10082-147). H460 cells (ATCC #HTB-177; human non-small cell lung cancer line) are grown in RPMI 1640 (Gibco #11875-093) supplemented with 10% FBS (Gibco #10082-147). […]
(§2) For compound testing, various cancer cells are seeded at 5,000 cells/well in 100 μl corresponding media specified above for each cell line in 96-well plates one day prior to treatment. […] Cell death in each well is determined by the addition of 15 μL of the One Solution Reagent (The CellTiter 96® AQueous One Solution Reagent, Promega #G3580). After 1-2 hours of incubation at 37° C., optical densities at 490 nm are measured with a microplate reader (Molecular Devices SpectraMax). Inhibition of cell viability is determined by comparison to the control cells treated in the absence of a test compound.

The subject of experiment [2] is H460 cells. The experiment in a line: Cell Viability Test, H460. The following applies: NCI-H460; H460 (human non-small cell lung cancer line); 1 ng/mL TNFα, 0.5% DMSO, 0.5 μg/mL cycloheximide, 48 hours; read-out: Cell Viability Inhibition IC50. It counts as cell-based. Here is the method:
as §1, §2

Experiment [3] deals with RPMI 8226 cells. The experiment in a line: Cell Viability Test, RPMI-8226. It counts as cell-based. To be noted: RPMI-8226 (human multiple myeloma cell line); 1 ng/mL TNFα, 0.5% DMSO, 48 hours; read-out: Cell Viability Inhibition IC50. Here is the method:
as §1, §2

Experiment [4] relates to U87MG cells. Put plainly: Cell Viability Test, U87MG. Type of experiment: cell-based. To be noted: U-87 MG; U87MG (human glioblastoma cell line); 1 ng/mL TNFα, 0.5% DMSO, 48 hours; read-out: Cell Viability Inhibition IC50. Here is the method: as §1, §2
Experiment [5] concerns A2780 cells. Put plainly: Cell Viability Test, A2780. Type of experiment: cell-based. To be noted: A2780 (human ovarian carcinoma); 1 ng/mL TNFα, 0.5% DMSO, 48 hours; read-out: Cell Viability Inhibition IC50. Here is the method:
as §1, §2

Experiment [6] concerns the target T1, IKKbeta (Homo sapiens, UniProt O14920).
T1 sequence (O14920 1-756): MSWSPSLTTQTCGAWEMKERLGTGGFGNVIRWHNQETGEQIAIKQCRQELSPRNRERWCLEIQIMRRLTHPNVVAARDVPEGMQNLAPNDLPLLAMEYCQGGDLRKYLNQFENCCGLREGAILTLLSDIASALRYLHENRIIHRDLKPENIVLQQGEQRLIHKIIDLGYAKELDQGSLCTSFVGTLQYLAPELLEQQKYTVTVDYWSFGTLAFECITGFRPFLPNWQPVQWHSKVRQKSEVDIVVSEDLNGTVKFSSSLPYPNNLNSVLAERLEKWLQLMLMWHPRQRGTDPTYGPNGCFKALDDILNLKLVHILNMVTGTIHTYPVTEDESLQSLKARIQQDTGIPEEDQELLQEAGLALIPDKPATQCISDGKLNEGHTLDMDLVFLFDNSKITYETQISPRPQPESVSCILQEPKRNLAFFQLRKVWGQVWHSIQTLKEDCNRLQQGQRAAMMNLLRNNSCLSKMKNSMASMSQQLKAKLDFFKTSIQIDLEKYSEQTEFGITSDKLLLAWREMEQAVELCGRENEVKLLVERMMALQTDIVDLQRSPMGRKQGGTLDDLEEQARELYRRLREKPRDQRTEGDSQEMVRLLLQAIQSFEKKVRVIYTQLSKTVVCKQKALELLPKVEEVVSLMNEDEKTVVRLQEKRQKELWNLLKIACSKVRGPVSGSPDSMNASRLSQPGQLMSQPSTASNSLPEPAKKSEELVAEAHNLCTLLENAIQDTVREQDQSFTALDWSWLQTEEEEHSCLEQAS
The experiment in a line: IKK-beta Kinase Assay. It counts as biochemical. To be noted: purified IKKβ 4 nM, 20 μM IKB peptide, 10 μM ATP, 90 minutes; absolute IC50; read-out: Enzyme Inhibition IC50. Here is the method:
The kinase activity of purified IKKβ is measured in vitro using a synthetic IKB peptide fragment (-[…]-) derived from IKB protein as a substrate. All reactions (30 μL) are started by the addition of the IKKb enzyme (final concentration: 4 nM) and then incubated at room temperature for 90 minutes in the reaction mix containing 20 μM IKB peptide, 10 μM ATP, 5 mM MgCl2, 50 mM Tris-HCl pH 7.5, 3 mM DTT, 4% DMSO, 1 mM Sodium Orthovandate, 0.5 mM β-glycerophosphate, 0.01% Triton X-100, 4 μCi γ-^33p-ATP/reaction. Reactions are terminated by addition of 30 μL 10% phosphoric acid, and the terminated reaction mix is filtered through a phosphocellulose membrane to remove unused γ-^33P-ATP. After four washes with 0.5% phosphoric acid, radio-labeled products bound to the filter are counted using a microbeta counter. All exemplified compounds are initially tested at 10 concentrations (20 μM down to 1 nM) using a 1:3 serial dilution scheme on the Beckman Tecan serial diluter. Calculation is done using a software package from IDBS (Activity Base) where an absolute IC50 value (non-linear regression) is calculated. Example 20 is specifically detailed below.

Structures are written as SMILES. Structures can show the parent of a compound that is named as a salt.

For `CN1CCN(CCCNc2ncc(Cl)c(-c3cc4c(C(=O)NC5CC5)cccc4s3)n2)CC1` [Example 20, 2-{5-Chloro-2-[3-(4-methylpiperazin-1-yl)-propylamino]-pyrimidin-4-yl}-benzo[b]thiophene-4-carboxylic acid cyclopropylamide tri-hydrochloride], the IC50 came out at 19.2 µM in experiment [1]; 9 µM in experiment [2]; 2.2 µM in experiment [3]; 22.3 µM in experiment [4]; 11.7 µM in experiment [5]; 0.046 µM in experiment [6].
